Data published in the NIST ThermoML archive (doi:10.1021/je101178u).
Where “and” joins values, the source holds several entries; their conditions need not be identical. Equal entries are not always repeated. ± gives the expanded uncertainty stated by the source.

Settings: Fluid (supercritical or subcritical phases); for mass density: Buoyancy - hydrostatic balance with magnetic suspension - one sinker; for viscosity: vibrating wire

CCC [propane]
Settings | mass density, 373.15 K | mass density, 423.15 K | viscosity, 373.15 K | viscosity, 423.15 K
79.37 kPa | – | 0.99883 ± 0.003 kg/m3 | – | 0.01136 ± 6.8e-05 mPa·s
158.25 kPa | – | 1.9998 ± 0.0048 kg/m3 | – | 0.01137 ± 6.8e-05 mPa·s
313.56 kPa | – | 3.9954 ± 0.0087 kg/m3 | – | 0.0114 ± 6.9e-05 mPa·s
466.92 kPa | – | 5.9988 ± 0.013 kg/m3 | – | 0.01142 ± 6.9e-05 mPa·s
467.03 kPa | – | 6.0003 ± 0.013 kg/m3 | – | 0.01143 ± 6.9e-05 mPa·s
611.2 kPa | – | 7.9148 ± 0.017 kg/m3 | – | 0.01145 ± 6.9e-05 mPa·s
611.47 kPa | – | 7.9184 ± 0.017 kg/m3 | – | 0.01145 ± 6.9e-05 mPa·s
763.44 kPa | – | 9.9704 ± 0.021 kg/m3 | – | 0.01148 ± 6.9e-05 mPa·s
763.61 kPa | – | 9.9726 ± 0.021 kg/m3 | – | 0.01148 ± 6.9e-05 mPa·s
920.8 kPa | – | 12.133 ± 0.026 kg/m3 | – | 0.01151 ± 6.9e-05 mPa·s and 0.01152 ± 6.9e-05 mPa·s
1060.2 kPa | – | 14.082 ± 0.03 kg/m3 | – | 0.01155 ± 7e-05 mPa·s
1061.3 kPa | – | 14.098 ± 0.03 kg/m3 | – | 0.01155 ± 7e-05 mPa·s
1192.7 kPa | – | 15.966 ± 0.034 kg/m3 | – | 0.01158 ± 7e-05 mPa·s
1193.5 kPa | – | 15.977 ± 0.034 kg/m3 | – | 0.01158 ± 7e-05 mPa·s
1334.7 kPa | – | 18.018 ± 0.038 kg/m3 | – | 0.01162 ± 7e-05 mPa·s
1335.7 kPa | – | 18.032 ± 0.038 kg/m3 | – | 0.01162 ± 7e-05 mPa·s
1454.8 kPa | – | 19.782 ± 0.042 kg/m3 and 19.781 ± 0.042 kg/m3 | – | 0.01166 ± 7e-05 mPa·s
2110 kPa | – | 29.905 ± 0.064 kg/m3 | – | 0.01189 ± 7.2e-05 mPa·s
2110.7 kPa | – | 29.916 ± 0.064 kg/m3 | – | 0.01189 ± 7.2e-05 mPa·s
2704.3 kPa | – | 39.922 ± 0.087 kg/m3 | – | 0.01217 ± 7.3e-05 mPa·s
2704.8 kPa | – | 39.931 ± 0.087 kg/m3 | – | 0.01217 ± 7.3e-05 mPa·s
3242.6 kPa | – | 49.821 ± 0.11 kg/m3 | – | 0.01248 ± 7.5e-05 mPa·s
3243.3 kPa | – | 49.834 ± 0.11 kg/m3 | – | 0.01248 ± 7.5e-05 mPa·s
3747.9 kPa | – | 59.965 ± 0.14 kg/m3 | – | 0.01283 ± 7.7e-05 mPa·s
3749.2 kPa | – | 59.991 ± 0.14 kg/m3 | – | 0.01284 ± 7.7e-05 mPa·s
4207.4 kPa | – | 70.041 ± 0.17 kg/m3 | – | 0.01323 ± 8e-05 mPa·s
4207.9 kPa | – | 70.052 ± 0.17 kg/m3 | – | 0.01323 ± 8e-05 mPa·s
4515.1 kPa | 229.821 ± 0.84 kg/m3 | – | 0.02377 ± 0.00017 mPa·s | –
4530.1 kPa | 241.836 ± 0.87 kg/m3 | – | 0.02518 ± 0.00018 mPa·s | –
4530.2 kPa | 241.88 ± 0.87 kg/m3 | – | 0.02519 ± 0.00018 mPa·s | –
4556 kPa | 256.611 ± 0.91 kg/m3 | – | 0.02701 ± 0.00019 mPa·s | –
4556.1 kPa | 256.634 ± 0.91 kg/m3 | – | 0.027 ± 0.00019 mPa·s | –
4576.2 kPa | 264.588 ± 0.93 kg/m3 | – | 0.02805 ± 0.0002 mPa·s | –
4576.3 kPa | 264.609 ± 0.93 kg/m3 | – | 0.02806 ± 0.0002 mPa·s | –
4606.1 kPa | 273.294 ± 0.96 kg/m3 and 273.287 ± 0.96 kg/m3 | – | 0.02925 ± 0.00021 mPa·s and 0.02926 ± 0.00021 mPa·s | –
4616.7 kPa | – | 79.819 ± 0.3 kg/m3 | – | 0.01365 ± 0.0001 mPa·s
4617.3 kPa | – | 79.834 ± 0.3 kg/m3 | – | 0.01365 ± 0.0001 mPa·s
4657.2 kPa | 283.68 ± 0.98 kg/m3 | – | 0.03078 ± 0.00022 mPa·s | –
4657.5 kPa | 283.727 ± 0.98 kg/m3 | – | 0.03078 ± 0.00022 mPa·s | –
4809.3 kPa | 301.877 ± 0.71 kg/m3 | – | 0.03369 ± 0.00022 mPa·s | –
4809.5 kPa | 301.894 ± 0.71 kg/m3 | – | 0.03367 ± 0.00022 mPa·s | –
5007.5 kPa | – | 89.97 ± 0.35 kg/m3 | – | 0.01412 ± 0.00013 mPa·s
5008.6 kPa | – | 90.002 ± 0.35 kg/m3 | – | 0.01412 ± 0.00013 mPa·s
5105.6 kPa | 320.889 ± 0.71 kg/m3 | – | 0.03705 ± 0.00024 mPa·s | –
5105.8 kPa | 320.902 ± 0.71 kg/m3 | – | 0.03706 ± 0.00024 mPa·s | –
5358.6 kPa | – | 99.87 ± 0.37 kg/m3 | – | 0.01462 ± 0.00013 mPa·s
5360.2 kPa | – | 99.917 ± 0.37 kg/m3 | – | 0.01462 ± 0.00013 mPa·s
5614.7 kPa | 339.536 ± 0.74 kg/m3 | – | 0.04075 ± 0.00027 mPa·s | –
5616.4 kPa | 339.584 ± 0.74 kg/m3 | – | 0.04077 ± 0.00027 mPa·s | –
5652.1 kPa | 340.592 ± 0.74 kg/m3 | – | 0.04096 ± 0.00027 mPa·s | –
5664.6 kPa | 340.939 ± 0.74 kg/m3 | – | 0.04104 ± 0.00027 mPa·s | –
5665.9 kPa | 340.974 ± 0.74 kg/m3 | – | 0.04105 ± 0.00027 mPa·s | –
5989.5 kPa | – | 119.759 ± 0.41 kg/m3 | – | 0.01573 ± 0.00014 mPa·s
5989.8 kPa | – | 119.769 ± 0.41 kg/m3 | – | 0.01573 ± 0.00014 mPa·s
6545.1 kPa | – | 139.717 ± 0.45 kg/m3 | – | 0.017 ± 0.00015 mPa·s
6545.3 kPa | – | 139.725 ± 0.45 kg/m3 | – | 0.017 ± 0.00015 mPa·s
6602.8 kPa | 360.84 ± 0.77 kg/m3 | – | 0.04555 ± 0.0003 mPa·s | –
6603.5 kPa | 360.852 ± 0.77 kg/m3 | – | 0.04553 ± 0.0003 mPa·s | –
7033 kPa | – | 159.017 ± 0.49 kg/m3 | – | 0.01838 ± 0.00016 mPa·s
7033.7 kPa | – | 159.048 ± 0.49 kg/m3 | – | 0.01838 ± 0.00016 mPa·s
7520.1 kPa | – | 179.397 ± 0.52 kg/m3 | – | 0.02002 ± 0.00017 mPa·s
7520.8 kPa | – | 179.425 ± 0.52 kg/m3 | – | 0.02002 ± 0.00017 mPa·s
7992.2 kPa | – | 199.277 ± 0.56 kg/m3 | – | 0.02182 ± 0.00018 mPa·s
7992.6 kPa | – | 199.294 ± 0.56 kg/m3 | – | 0.02182 ± 0.00018 mPa·s
8140.1 kPa | 381.197 ± 0.79 kg/m3 | – | 0.05077 ± 0.00033 mPa·s | –
8140.4 kPa | 381.2 ± 0.79 kg/m3 | – | 0.05076 ± 0.00033 mPa·s | –
8516 kPa | – | 220.253 ± 0.59 kg/m3 | – | 0.02395 ± 0.00019 mPa·s
8516.4 kPa | – | 220.267 ± 0.59 kg/m3 | – | 0.02394 ± 0.00019 mPa·s
9079.6 kPa | – | 240.483 ± 0.61 kg/m3 | – | 0.02624 ± 0.0002 mPa·s
9079.9 kPa | – | 240.492 ± 0.61 kg/m3 | – | 0.02623 ± 0.0002 mPa·s
9738.4 kPa | – | 260.609 ± 0.61 kg/m3 | – | 0.02877 ± 0.0002 mPa·s
9738.5 kPa | – | 260.612 ± 0.61 kg/m3 | – | 0.02878 ± 0.0002 mPa·s
10482 kPa | 401.46 ± 0.82 kg/m3 | – | 0.05673 ± 0.00036 mPa·s | –
10483 kPa | 401.469 ± 0.82 kg/m3 | – | 0.05674 ± 0.00036 mPa·s | –
10543 kPa | – | 280.635 ± 0.64 kg/m3 | – | 0.03161 ± 0.00022 mPa·s
10544 kPa | – | 280.644 ± 0.64 kg/m3 | – | 0.0316 ± 0.00022 mPa·s
11566 kPa | – | 300.645 ± 0.66 kg/m3 and 300.654 ± 0.66 kg/m3 | – | 0.03477 ± 0.00023 mPa·s
12882 kPa | – | 320.474 ± 0.69 kg/m3 | – | 0.03827 ± 0.00025 mPa·s
12884 kPa | – | 320.488 ± 0.69 kg/m3 | – | 0.03828 ± 0.00025 mPa·s
13841 kPa | 421.334 ± 0.85 kg/m3 and 421.333 ± 0.85 kg/m3 | – | 0.06347 ± 0.00039 mPa·s and 0.06343 ± 0.00039 mPa·s | –
14693 kPa | – | 341.059 ± 0.72 kg/m3 | – | 0.04235 ± 0.00027 mPa·s and 0.04234 ± 0.00027 mPa·s
17064 kPa | – | 361.23 ± 0.75 kg/m3 | – | 0.04694 ± 0.0003 mPa·s
17065 kPa | – | 361.234 ± 0.75 kg/m3 | – | 0.04691 ± 0.0003 mPa·s
18565 kPa | 441.166 ± 0.89 kg/m3 | – | 0.07127 ± 0.00044 mPa·s | –
18567 kPa | 441.173 ± 0.89 kg/m3 | – | 0.07127 ± 0.00044 mPa·s | –
20192 kPa | – | 381.227 ± 0.79 kg/m3 | – | 0.05209 ± 0.00033 mPa·s
20193 kPa | – | 381.229 ± 0.79 kg/m3 | – | 0.05209 ± 0.00033 mPa·s
24333 kPa | – | 401.231 ± 0.83 kg/m3 | – | 0.05798 ± 0.00036 mPa·s
24334 kPa | – | 401.235 ± 0.83 kg/m3 | – | 0.05795 ± 0.00036 mPa·s
25008 kPa | 460.907 ± 0.94 kg/m3 | – | 0.08006 ± 0.00049 mPa·s and 0.08024 ± 0.00049 mPa·s | –
25010 kPa | 460.912 ± 0.94 kg/m3 | – | 0.08022 ± 0.00049 mPa·s and 0.08013 ± 0.00049 mPa·s | –
28973 kPa | 470.682 ± 0.96 kg/m3 | – | 0.08526 ± 0.00052 mPa·s | –
28975 kPa | 470.686 ± 0.96 kg/m3 | – | 0.08531 ± 0.00052 mPa·s and 0.08536 ± 0.00052 mPa·s and 0.0853 ± 0.00052 mPa·s | –
29700 kPa | – | 421.002 ± 0.88 kg/m3 | – | 0.06464 ± 0.0004 mPa·s
29703 kPa | – | 421.011 ± 0.88 kg/m3 | – | 0.06466 ± 0.0004 mPa·s
29829 kPa | 472.623 ± 0.96 kg/m3 | – | 0.08626 ± 0.00053 mPa·s | –
29830 kPa | 472.624 ± 0.96 kg/m3 | – | 0.08626 ± 0.00053 mPa·s | –
